These results are taken from publication PMC7151078, “A Novel NMDA Receptor Antagonist Protects against Cognitive Decline Presented by Senescent Mice” (Pharmaceutics, 2020).

The target in one data set is T1, CYP1A2 (Homo sapiens, UniProt P05177).
T1 construct: host or cells: insect cell microsomes
T1 sequence (P05177 1-516): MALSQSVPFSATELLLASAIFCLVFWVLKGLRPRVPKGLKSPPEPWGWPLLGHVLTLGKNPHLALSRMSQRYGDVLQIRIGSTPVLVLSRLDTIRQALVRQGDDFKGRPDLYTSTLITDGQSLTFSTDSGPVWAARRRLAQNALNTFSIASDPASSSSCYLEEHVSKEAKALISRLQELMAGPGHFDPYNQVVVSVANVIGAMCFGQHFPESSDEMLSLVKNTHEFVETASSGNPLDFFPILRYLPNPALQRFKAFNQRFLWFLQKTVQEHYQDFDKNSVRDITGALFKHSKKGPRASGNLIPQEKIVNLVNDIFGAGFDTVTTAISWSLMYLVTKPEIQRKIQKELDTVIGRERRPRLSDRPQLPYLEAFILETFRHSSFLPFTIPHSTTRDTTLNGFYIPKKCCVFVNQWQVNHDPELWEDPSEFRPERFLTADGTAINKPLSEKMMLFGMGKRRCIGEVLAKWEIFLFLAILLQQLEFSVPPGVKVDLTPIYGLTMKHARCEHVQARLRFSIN
In words: Cytochrome inhibition, fluorescent detection (CEC substrate). The data set is classed as in vitro ADME. As to conditions: recombinant human CYP1A2. On the procedure: (§1) To screen the inhibition potential of the compounds, recombinant human cytochrome P450 enzymes (CYP1A2, CYP2C9, CYP2C19, CYP2D6, and CYP3A4) and probe substrates were used with the fluorescent detection method. Incubations were conducted in 200-µL volume 96 well microtiter plates (COSTAR 3915). Addition of cofactor-buffer mixture (KH2PO4 buffer, 1.3 mM NADP+, 3.3 mM MgCl2, 3.3 mM Glucose-6-phosphate and 0.4 U/mL Glucose-6-phosphate Dehydrogenase), supersomes control, standard inhibitors (Furafyline, Tranylzypromine, Ketoconazole, Sulfaphenazole, and Quinidine; from Sigma Aldrich), and test compounds to plates were carried out using a a liquid handling station (Zephyr Caliper). The plate was then pre-incubated at 37 °C for 5 min, and the reaction initiated by the addition of pre-warmed enzyme/substrate (E/S) mix. […] Fluorescence per well was measured using a fluorescence plate reader (Tecan M1000 pro), and the percentage of inhibition was calculated.

In a further data set the target is T2, CYP2C19 (Homo sapiens, UniProt P33261).
T2 construct: host or cells: insect cell microsomes
The data set is described as above. The data set is classed as in vitro ADME. The conditions noted are these: recombinant human CYP2C19. On the procedure: as §1

The test system of a further data set is SAMR1 and SAMP8 mice. In words: Novel object recognition test (NORT). Format: in vivo, mouse. As to conditions: 5 mg/kg/day. On the procedure: Male SAMR1 and SAMP8 mice (n = 41) with 20-weeks-old were used to carry out cognitive and molecular analysis. The animals were randomly divided into four groups: SAMR1 control (SR1 Ct) group (n = 11), SAMP8 control (SP8 Ct) group (n = 8), SAMR1 treated with RL-208 (SR1 RL-208 (5 mg/Kg)) group (n = 10) and SAMP8 treated with RL-208 (SP8 RL-208 (5 mg/Kg)) group (n = 12). Animals had free access to food and water, under standard temperature conditions (22±2 °C) and 12h:12h light-dark cycles (300 lux/0 lux). RL-208, (3,4,8,9-tetramethyltetracyclo[4.4.0.0^3,9.0^4,8]dec-1-yl)-methylamine hydrochloride, (5 mg/kg/day) was administered through drinking water for four weeks before starting the cognitive test. RL-208 was administered up to euthanasia (Figure 1A). Water consumption was controlled each week for each cage and strain. Afterwards, RL-208 concentration was adjusted accordingly to reach the optimal dose for each cage. The novel object recognition test (NORT) allows evaluating short- and long-term recognition memory involving cortical areas and the hippocampus. The experimental apparatus used for this test was a 90º, two-arm, 25-cm-long, 20-cm-high, and a 5-cm-wide black maze of black polyvinyl chloride (Figure 1D). The walls could be removed for easy cleaning with 70% ethanol to eliminate olfactory cues, and light intensity in mid-field was 30 lux. The objects to be discriminated were made of plastic and chosen not to frighten mice and without any part likely to be bitten. Before performing the test, the mice were individually habituated to the apparatus for 10 min during 3 consecutive days. On day four the next day, the animals were allowed to explore freely a 10 min acquisition trial (First trial), during which they were placed in the maze in the presence of two identical novel objects (A+A’ or B+B’) at the end of each arm. The mouse was then removed from the apparatus and returned to its home cage. A 10 min retention trial (Second trial) was carried out two hours later. […] The time that mice explored the novel object (TN) and time that mice explored the old object (TO) were measured from the video recordings from each trial session Exploration of an object was defined as pointing the nose towards the object at a distance ≤2 cms and/or touching it with the nose. […] To avoid object preference biases objects A and B were counterbalanced so that one-half of the animals in each experimental group were first exposed to object A and then to object B, whereas the other half first saw object B and then object A. To evaluate the cognitive performance, the discrimination index (DI) was calculated, which is defined as (TN-TO)/(TN+TO).

For the next data set, the target named is T3, CYP3A4 (Homo sapiens, UniProt P08684).
T3 construct: host or cells: insect cell microsomes
In words: Cytochrome inhibition, fluorescent detection (7-BFC and DBF substrates). Format: in vitro ADME. On the procedure:
as §1

T3 sequence (P08684 whole entry): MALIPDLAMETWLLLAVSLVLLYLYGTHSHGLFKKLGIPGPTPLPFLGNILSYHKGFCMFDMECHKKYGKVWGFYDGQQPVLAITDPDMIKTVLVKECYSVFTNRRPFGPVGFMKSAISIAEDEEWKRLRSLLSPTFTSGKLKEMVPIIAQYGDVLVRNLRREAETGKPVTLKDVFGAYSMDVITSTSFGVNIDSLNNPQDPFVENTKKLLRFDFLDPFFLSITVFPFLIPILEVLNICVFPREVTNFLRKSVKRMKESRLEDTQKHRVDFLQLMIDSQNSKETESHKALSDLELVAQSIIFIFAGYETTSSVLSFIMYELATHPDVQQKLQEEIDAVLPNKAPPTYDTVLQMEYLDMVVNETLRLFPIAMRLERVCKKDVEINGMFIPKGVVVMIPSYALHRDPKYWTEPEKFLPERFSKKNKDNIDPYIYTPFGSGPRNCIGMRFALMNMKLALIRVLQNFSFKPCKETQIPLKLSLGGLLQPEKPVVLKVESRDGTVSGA
T2 sequence (P33261 whole entry): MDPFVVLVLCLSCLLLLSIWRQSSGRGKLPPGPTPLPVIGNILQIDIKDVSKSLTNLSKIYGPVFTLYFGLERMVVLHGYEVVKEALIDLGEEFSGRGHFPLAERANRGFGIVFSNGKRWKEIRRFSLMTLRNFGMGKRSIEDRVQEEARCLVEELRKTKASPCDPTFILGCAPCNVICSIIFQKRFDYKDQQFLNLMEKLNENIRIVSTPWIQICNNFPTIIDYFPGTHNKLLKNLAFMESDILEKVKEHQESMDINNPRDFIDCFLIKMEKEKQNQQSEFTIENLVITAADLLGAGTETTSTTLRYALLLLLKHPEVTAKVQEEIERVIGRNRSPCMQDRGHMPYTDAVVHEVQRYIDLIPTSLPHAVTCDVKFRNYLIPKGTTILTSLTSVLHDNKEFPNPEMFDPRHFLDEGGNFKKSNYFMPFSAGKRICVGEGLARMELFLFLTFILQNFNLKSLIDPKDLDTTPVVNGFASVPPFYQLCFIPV

Take `CC12CC3CC1(C)C1(C)CC3(CN)CC21C.Cl` [RL-208, (3,4,8,9-tetramethyltetracyclo [4.4.0.0^3,9.0^4,8]dec-1-yl)methylamine hydrochloride]: the CYP1A2 inhibition at CYP1A2 was determined as 5 ± 2%. Further, the CYP2C19 inhibition at CYP2C19 is on record as 23 ± 1%. Also, in the data set with SAMR1 and SAMP8 mice (SP8 RL-208 vs SP8 Ct, 2 h retention), the “NORT short-term recognition memory (DI)” value was “significant gain”. For the same molecule, the “NORT long-term recognition memory (DI)” value in the data set with SAMR1 and SAMP8 mice (SP8 RL-208 vs SP8 Ct, 24 h retention) was “significant gain”. In the data set on SAMR1 and SAMP8 mice (between SR1 groups), the “NORT long-term DI” value was “no significant changes” and the “NORT short-term DI” value is reported as “no significant changes”. The “CYP3A4 (BFC) inhibition” value on CYP3A4 (recombinant human CYP3A4, substrate BFC) was found to be 35 ± 4%. On CYP3A4 (recombinant human CYP3A4, substrate DBF), the “CYP3A4 (DBF) inhibition” value was 3 ± 1%.
